Test results taken from ChEMBL document CHEMBL1155572, “Sesquiterpene quinols/quinones from the Micronesian sponge Petrosaspongia metachromia” (J Nat Prod, 2000).
Values after ≈ are worked out from the molar mass of the structure shown.

Experiment: Toxicity against brine shrimp
Format: organism-based
Conditions: artemia, in vivo

SMILES: COC(=O)c1cc(O)c(O)c2c1[C@]1(C)CC[C@H]3C(C)(C)CCC[C@]3(C)[C@H]1C2 [PELOROL]
- LC50: 5 µg/mL (≈ 13.4 µM)
